One data set has as its system solubilized C5a receptor. Kind of data set: Inhibition of C5a binding to solubilized or purified receptor by nucleotides. More on the design: species or system human.
Data set [1] relates to C5a receptor from PMN membranes. Briefly: Release of binding sites from the membrane: total binding activity of detergent extracts at saturation compared with intact membrane. More on the design: species or system human. The method, then: In additional experiments (results not shown) the ability of digitonin and β-dodecyl maltoside to release binding sites from the membrane was determined by comparing the total binding activity of the extracts, at saturation, with that of an equivalent amount of intact membrane. In the two experiments in which a direct comparison was made the efficiencies of the detergents appeared to be similar, both solubilized 30-35% of the receptors initially present in the membrane. However, over the course of the work we did observe variability from experiment to experiment and it is our impression that, on average, digitonin was more efficient than β-dodecyl maltoside (for an example, see Table I).

Procedure for solubilized C5a receptor: -All assays, except where noted, were performed at 4°C, with freshly thawed membranes or freshly prepared soluble receptor. To assay intact membranes, assay buffer (50 mM HEPES, pH 7.2, containing 1 mM CaCl₂, 5 mM MgCl₂, 0.1 mM PMSF, 0.1% bacitracin, and 0.5% bovine serum albumin), ¹²⁵I-C5a (typically 0.1 ng), and membrane (typically 0.5 µg) were added sequentially to a final volume of 200 µl. After incubation for 60-90 minutes 2 ml of assay buffer was added, the solution mixed, and the sample filtered through either a Whatman® GF/C filter treated with 0.33% polyethyleneimine or an untreated Millipore®GVWP filter. […] The filters were then counted in a Packard 460 γ-counter. Nonspecific backgrounds were determined by including 20 ng or more of unlabled C5a in the incubation mixture. To assay soluble receptor, assay buffer, solubilized membrane (typically 5 µl) and ¹²⁵I-C5a were mixed to a final volume of 200 µl and incubated for 15-30 minutes, at which time 500 µl of 0.1% bovine γ-globulin and 500 µl of 30% polyethylene glycol were added sequentially with vigorous mixing. After an additional 5 minutes, the sample was filtered and washed with 2 ml of a 9% PEG solution. (Precipitation is essentially complete in less than one minute and the precipitated receptor-­ligand complex is stable for more than 30 minutes.)
As shown in Figure 5 membranes were solubilized in digitonin and assayed for binding activity in the presence of increasing amounts of GTPγS.

For `Nc1nc2c(ncn2[C@@H]2O[C@H](COP(=O)(O)OP(=O)(O)OP(O)(O)=S)[C@@H](O)[C@H]2O)c(=O)[nH]1` [GTPγS], the “maximum inhibition of C5a binding” value in the data set on solubilized C5a receptor (digitonin solubilized membranes) is listed as 85%. The IC50 on solubilized C5a receptor (inhibition of C5a binding, digitonin solubilized membranes, read-out: IC₅₀) worked out at 10 nM. The “inhibition of binding of C5a to the purified receptor” value in the data set with solubilized C5a receptor (purified receptor, 3 different preparations) is on record as 27-50%.
For the compound `CCCCCCCCCCCCO[C@@H]1O[C@H](CO)[C@@H](O[C@H]2O[C@H](CO)[C@@H](O)[C@H](O)[C@H]2O)[C@H](O)[C@H]1O` [β-Dodecyl maltoside], the “receptors initially present in the membrane solubilized” value in data set [1] is on record as 30-35%.

For the origin of these results see patent publication EP0377489A2, “Purified C5a receptor from human polymorphonuclear leukocytes” (MERCK & CO. INC., priority 1989, dated 1990).
